Assay results from patent US7462600B2, “Macrolides” (Pfizer Inc, priority 2004, dated 2008).
In brackets after ≈: the same amount, converted by molar mass. Like-named read-outs stand apart in the source and are kept apart here.

Assays:
Format in all cases: cell-based
[1] = system: Streptococcus pneumoniae 1175; details: microtiter broth dilution
Procedure: (§1) The assay described herein includes a panel of bacterial strains assembled to include a variety of target pathogenic species, including representatives of macrolide resistance mechanisms that have been characterized. In many cases, both the macrolide-susceptible parent strain and the macrolide-resistant strain derived from it are available to provide a more accurate assessment of the compound's ability to circumvent the resistance mechanism. The assay is performed in microtiter trays and interpreted according to Performance Standards for Antimicrobial Susceptibility Testing; 14th Informational Supplement (M100-S14), published by The National Committee for Clinical Laboratory Standards (NCCLS) guidelines; the MIC is used to compare strains. Compounds are initially dissolved in DMSO as 40 mg/ml stock solutions.

[2] = system: Streptococcus pneumoniae 1095; details: microtiter broth dilution
Procedure: as §1

[3] = system: Streptococcus pyogenes 1079; test: MIC, microtiter broth dilution (NCCLS M100-S14), S. pyogenes 1079 (ermB)
Procedure: as §1

[4] = system: Streptococcus pneumoniae 1016; test: MIC, microtiter broth dilution (NCCLS M100-S14), S. pneumoniae 1016 (susceptible)
Procedure: as §1

[5] = system: Haemophilus influenzae 1218; test: MIC, microtiter broth dilution (NCCLS M100-S14), H. influenzae 1218 (susceptible)
Procedure: as §1

[6] = S. pneumoniae 1016 (susceptible)
[7] = H. influenzae 1218 (susceptible)

Row | SMILES | MIC S. pneumo. 1175 ([1]; S. pneumoniae 1175 (mefA)) [µg/mL] | MIC S. pneumo. 1095 ([2]; S. pneumoniae 1095 (ermB)) [µg/mL] | MIC S. pyogenes 1079 ([3]; S. pyogenes 1079 (ermB)) [µg/mL] | MIC S. pneumo. 1016 [4, 6] [µg/mL] | MIC S. pneumo. 1175 ([1]; Streptococcus pneumoniae 1175) [µg/mL] | MIC S. pneumo. 1095 ([2]; Streptococcus pneumoniae 1095) [µg/mL] | MIC S. pyogenes 1079 ([3]; Streptococcus pyogenes 1079) [µg/mL] | MIC S. pneumo. 1016 ([4]; Streptococcus pneumoniae 1016) [µg/mL] | MIC H. influenzae 1218 [5, 7] [µg/mL] | MIC H. influenzae 1218 ([5]; Haemophilus influenzae 1218) [µg/mL]
1 | CC[C@H]1OC(=O)[C@H](C)C(=O)[C@H](C)[C@@H](O[C@@H]2O[C@H](C)C[C@H](N(C)C)[C@H]2O)[C@](C)(OC)C[C@@H](C)C(=O)[C@H](C)[C@H]2N(CC3(C)CN(C(=O)c4ccnc5ccccc45)C3)C(=O)O[C@]12C.O=CO [6.13] | <0.06 | 8 | >64.00 | <0.06 | – | – | – | – | – | –
2 | CC[C@H]1OC(=O)[C@H](C)C(=O)[C@H](C)[C@@H](O[C@@H]2O[C@H](C)C[C@H](N(C)C)[C@H]2O)[C@](C)(OC)C[C@@H](C)C(=O)[C@H](C)[C@H]2N(CC3(C)CN(C(=O)c4ccc5ncccc5c4)C3)C(=O)O[C@]12C.O=CO [6.15] | 2 | 8 | >64.00 | <0.06 | – | – | – | – | – | –
3 | CC[C@H]1OC(=O)[C@H](C)C(=O)[C@H](C)[C@@H](O[C@@H]2O[C@H](C)C[C@H](N(C)C)[C@H]2O)[C@](C)(OC)C[C@@H](C)C(=O)[C@H](C)[C@H]2N(CC3(C)CN(C(=O)c4cncc5ccccc45)C3)C(=O)O[C@]12C.O=CO [6.20] | 0.5 | 64 | >64.00 | <0.06 | – | – | – | – | – | –
4 | CC[C@H]1OC(=O)[C@H](C)C(=O)[C@H](C)[C@@H](O[C@@H]2O[C@H](C)C[C@H](N(C)C)[C@H]2O)[C@](C)(OC)C[C@@H](C)C(=O)[C@H](C)[C@H]2N(CC3(C)CN(C(=O)c4cnc5ccccc5c4)C3)C(=O)O[C@]12C.O=CO [6.12] | 0.12 | 0.25 | >64.00 | <0.06 | – | – | – | – | – | –
5 | CCC1OC(=O)C(C)C(=O)C(C)C(OC2OC(C)CC(N(C)C)C2O)C(C)(OC)CC(C)C(=O)C(C)C2N(C3CN(Cc4ccc5ncccc5c4)C3)C(=O)OC12C (centres unmarked) [Example 1.07, (quinolin-6-yl)methyl] | – | – | – | – | 0.25 (≈ 0.309 µM) | <0.06 | 16 (≈ 19.8 µM) | <0.06 | – | –
6 | CCC1OC(=O)C(C)C(=O)C(C)C(OC2OC(C)CC(N(C)C)C2O)C(C)(OC)CC(C)C(=O)C(C)C2N(CC3CCN(Cc4cccc5cccnc45)C3)C(=O)OC12C (centres unmarked) [11.12] | <0.06 | <0.06 | – | <0.06 | – | – | – | – | <0.06 | –
7 | CCC1OC(=O)C(C)C(=O)C(C)C(OC2OC(C)CC(N(C)C)C2O)C(C)(OC)CC(C)C(=O)C(C)C2N(CC3CCN(Cc4cccc5cnccc45)C3)C(=O)OC12C (centres unmarked) [11.13] | <0.06 | <0.06 | – | <0.06 | – | – | – | – | 0.25 (≈ 0.299 µM) | –
8 | CC[C@H]1OC(=O)[C@H](C)C(=O)[C@H](C)[C@@H](O[C@@H]2O[C@H](C)C[C@H](N(C)C)[C@H]2O)[C@](C)(OC)C[C@@H](C)C(=O)[C@H](C)[C@H]2N(CC3(C)CN(C(=O)c4cc5cccnc5[nH]4)C3)C(=O)O[C@]12C [6.23] | 0.25 (≈ 0.298 µM) | <0.06 | 64 (≈ 76.2 µM) | <0.06 | – | – | – | – | – | –
9 | CCC1OC(=O)C(C)C(=O)C(C)C(OC2OC(C)CC(N(C)C)C2O)C(C)(OC)CC(C)C(=O)C(C)C2N(C3CN(Cc4nc5ccccc5[nH]4)C3)C(=O)OC12C (centres unmarked) [Example 1.09, (1H-benzo[d]imidazo-2-yl)methyl] | – | – | – | – | 0.25 (≈ 0.313 µM) | <0.06 | >64.00 | <0.06 | – | –
10 | CC[C@H]1OC(=O)[C@H](C)C(=O)[C@H](C)[C@@H](O[C@@H]2O[C@H](C)C[C@H](N(C)C)[C@H]2O)[C@](C)(OC)C[C@@H](C)C(=O)[C@H](C)[C@H]2N(CC3(C)CN(C(=O)c4ccc5ncsc5c4)C3)C(=O)O[C@]12C.O=CO [6.19] | 0.5 | 1 | >64.00 | <0.06 | – | – | – | – | – | –
11 | CCC1OC(=O)C(C)C(=O)C(C)C(OC2OC(C)CC(N(C)C)C2O)C(C)(OC)CC(C)C(=O)C(C)C2N(CC3CN(C(=O)c4cccc5cccnc45)C3)C(=O)OC12C (centres unmarked) [Example 4.34, 3-descladinosyl-11,12-dideoxy-6-O-methyl-3-oxo-12,11-(oxycarbonyl-((1-(quinoline-8-carbonyl)-azetidin-3-yl)-methyl)-imino)-erythromycin A] | – | – | – | – | 1 (≈ 1.19 µM) | 1 (≈ 1.19 µM) | – | <0.06 | – | 0.25 (≈ 0.299 µM)
